Measurements from patent US7052714B1, “Ophthalmic adhesive preparations for percutaneous adsorption” (Senju Pharmaceutical Co., LTD, priority 1999, dated 2006).
Several values for one entry are separate records, joined by “and”; a condition that tells them apart may be missing. Equal entries are not always repeated. Where two headings read alike, the source gives them in different places. Each block holds one compound with its values, some of them ahead of it.

What was measured:
[1] = male, Wistar/ST, rat, in vivo
Procedure: (§1) 0.5-ml blood sampling was performed over time through a sampling port of the cannula placed on the occipital region of the rat's head. For measurement of transfer of the drug to the ocular tissues, rats were euthanized with an excess amount of sodium pentobarbital solution and the ocular tissues were removed. The tissues were pretreated, extracted and measured to determine the concentration of the drug by HPLC.
(§2) Determination of the concentration of N-(4-fluorophenylsulfonyl)-L-valyl-L-leucinal in the samples was carried out by HPLC under the following conditions.

in vivo = settings: male, Wistar/ST, rat
Procedure: as §1, §2

[2] = In vivo test-2: SJA6017 transdermal patch, transfer to the plasma and ocular tissues; parameters: species or system Wistar/ST rats; settings: transdermal application, 12 hours after application
Source text: A study of SJA6017-containing transdermal patch according to the formula below was made for examining transfer of SJA6017 from the patch to the plasma and to the ocular tissues, and comparison of the results with those from intravenous injection was also made.
The hair was removed under anesthesia with a clipper and a shaver carefully to avoid injuring the skin. A SJA6017 transdermal patch having a drug-containing layer according to the above formula with the size of 5.0×6.0 cm (30 cm^2) was applied to the animals (n=10) of the percutaneous administration group on the abdominal skin and secured in position with a supporting tape to prevent it from falling. After 12 hours of application, the animals were sacrificed and the blood was collected from the abdominal aorta, and the plasma separated. The eyes were excised at the same time. Each of the eyes was separated into the aqueous humor, the lens and the other tissues (consisting of the cornea, the sclera, the iris-ciliary body, the vitreous body and the retina-choroid), and corresponding tissues separated from the 20 eyes were combined, respectively, to make a sample.

[3] = In vivo test-2: intravenous administration experiment; parameters: species or system Wistar rats; settings: intravenous injection 2 mg/kg, rat, 15 minutes after injection
Procedure: An intravenous administration experiment was carried out using 5 male Wistar rats (body weight approx. 600 g: 592±34 g) by administering 2 mg/kg SJA6017 through the tail vein of the animals under pentobarbital anesthesia. For the administration, a solution was used containing 10 mg SJA6017 dissolved in 10 ml mixture of ethanol/PEG400/water (1/2/1). Fifteen minutes after the intravenous administration, the animals were sacrificed, the blood was collected through the abdominal aorta, and the plasma separated. The eyes were excised at the same time. Each of the eyes was separated into the aqueous humor, the lens and the other tissues (consisting of the cornea, the sclera, the iris-ciliary body, the vitreous body and the retina-choroid), and corresponding tissues separated from the 10 eyes were combined, respectively, to make a sample.

[4] = In vivo test-1: transfer of drugs from transdermal patches to the plasma and ocular tissues
Procedure: as §1, §2

[5] = male, Wistar/ST, rat, plasma, other: transdermal patch applied on the abdominal skin, 10 cm^2
[6] = male, Wistar/ST, rat, plasma, other: transdermal patch applied on the abdominal skin, 10 cm^2 patch

time after application at which plasma concentration reached the peak [1]: 8 h | concentration at 0 h (in vivo): 0 ng/mL | concentration at 2 h (in vivo): 220 ng/mL | concentration at 4 h (in vivo): 288 ng/mL | concentration at 6 h (in vivo): 70 ng/g and 385 ng/mL | concentration at 8 h (in vivo): 608 ng/mL | concentration at 12 h (in vivo): 148 ng/mL | concentration at 18 h (in vivo): 99 ng/mL | concentration at 24 h (in vivo): 77 ng/mL
SMILES: C[C@]12C=CC(=O)C=C1CC[C@@H]1[C@@H]2[C@@H](O)C[C@@]2(C)[C@H]1CC[C@]2(O)C(=O)CO [Prednisolone, prednisolone]

concentration at 12 h ([2]; male, Wistar/ST, eye (ocular tissues), other: transdermal patch applied on the abdominal skin, 30 cm^2 patch, 5 W/W% SJA6017 patch 30 cm^2, rat, read-out: Intraocular concentration): 7.2 ng/g | concentration at 12 h ([2]; male, Wistar/ST, lens, other: transdermal patch applied on the abdominal skin, 30 cm^2 patch, SJA6017 patch 30 cm^2, rat, read-out: Intraocular concentration, itemized: Lens): 1.1 ng/g | concentration at 12 h ([2]; male, Wistar/ST, other: transdermal patch applied on the abdominal skin, 30 cm^2 patch, SJA6017 patch 30 cm^2, rat, read-out: Intraocular concentration, itemized: Other ocular tissues (cornea, sclera, iris-ciliary body, vitreous body, retina-choroid)): 13.8 ng/g | concentration at 12 h ([2]; male, Wistar/ST, plasma, other: transdermal patch applied on the abdominal skin, 30 cm^2 patch, 5 W/W% SJA6017 patch 30 cm^2, rat, read-out: Plasma concentration): 47 ± 12 ng/mL | Kp at 12 h ([2]; male, Wistar/ST, rat, eyeball/plasma, other: transdermal patch applied on the abdominal skin, 30 cm^2 patch, SJA6017 patch 30 cm^2, rat, read-out: Eyeball/plasma ratio): ~0.16 | Intraocular concentration, itemized: Aqueous humor ([2]; SJA6017 patch 30 cm^2, rat): not detected | Lens: ratio to plasma concentration (100%) ([2]; SJA6017 patch 30 cm^2, rat): (2.3%)*^2 | Other ocular tissues: ratio to plasma concentration (100%) ([2]; SJA6017 patch 30 cm^2, rat): (29.6%)*^2 | Intraocular concentration, itemized: Aqueous humor [3]: not detected | Intraocular concentration, itemized: Lens [3]: not detected | Other ocular tissues: ratio to plasma concentration (100%) [3]: (27.8%)*^2 | Eyeball/plasma ratio ([3]; 2 mg/kg): 13% | concentration at 15 min ([3]; male, Wistar, eye (ocular tissues), read-out: Intraocular concentration): 16 ng/g | Kp at 15 min ([3]; male, Wistar, eyeball/plasma, read-out: Eyeball/plasma ratio): 0.13 | concentration at 15 min ([3]; male, Wistar, plasma, read-out: Plasma concentration): 120 ± 16 ng/mL | concentration at 15 min ([3]; male, Wistar, read-out: Intraocular concentration, itemized: Other ocular tissues (cornea, sclera, iris-ciliary body, vitreous body, retina-choroid)): 33.4 ng/g | time after application at which plasma concentration reached the peak ([4]; SJA6017 patch No. S4, 10 cm^2, rat): 12 h | plasma concentration 24 hours after application relative to its peak ([4]; SJA6017 patch No. S4, 10 cm^2, rat, 24 hours): about 85% | concentration at 8 h [4, 5]: 50 ng/mL | concentration at 12 h [4, 5]: 114 ng/mL | concentration at 18 h [4, 5]: 68 ng/mL | concentration at 24 h [4, 5]: 98 ng/mL | concentration at 0 h [4, 6]: 0 ng/mL | concentration at 2 h [4, 6]: 30 ng/mL | concentration at 4 h [4, 6]: 36 ng/mL | concentration at 6 h [4, 6]: 58 ng/mL
SMILES: CC(C)C[C@@H](C=O)NC(=O)[C@@H](NS(=O)(=O)c1ccc(F)cc1)C(C)C [SJA6017, N-(4-fluorophenylsulfonyl)-L-valyl-L-leucinal]
